# Reference: patent publication US11357779B2 (G1 Therapeutics, Inc., priority 2018, dated 2022)
# Experiment: Noncompartmental pharmacokinetic parameters (Cmax, Tmax, AUC, Racc) in QD and BID cohorts of Form B
# Format: in vivo, human
# Conditions: for Racc (Max) / Racc (Mean) / Racc (Median) / Racc (Min): AUCDay 29/AUCDay 1
# Protocol: Analysis of plasma concentration versus time data for calculation of standard pharmacokinetic (PK) parameters following oral administration was conducted using Phoenix WinNonlin version 6.3 using actual blood sampling times.
# The following pharmacokinetic parameters were calculated from the concentration versus time data obtained in Example 1 for each of the above QD (200 mg, 300 mg, 400 mg, 500 mg, or 650 mg dosed) and BID (100 mg, 150 mg, or 200 mg doses) Form B of Compound II dosage cohorts: • Cmax—the observed peak plasma concentration determined from the plasma concentration versus time data obtained on Day 1 and Day 29, as applicable; • Tmax—the time to reach the observed peak plasma concentration from the plasma concentration versus time data obtained on Day 1 and Day 29, as applicable; • AUC—area under the plasma concentration versus time curve during a dosing interval on Day 1 and Day 29, as applicable; and • Racc—accumulation ratio calculated as AUCDay 29/AUCDay 1.
# [1] = Cohort 1, 200 mg QD of Form B, Day 1
# [2] = Cohort 2, 300 mg QD of Form B, Day 1
# [3] = Cohort 3, 400 mg QD of Form B, Day 1
# [4] = Cohort 4, 500 mg QD of Form B, Day 1
# [5] = Cohort 5, 650 mg QD of Form B, Day 1
# [6] = Cohort 6, 100 mg BID of Form B, Day 1
# [7] = Compound I, 100 mg BID of Form B, Cohort 6
# [8] = Compound I, 100 mg BID of Form B, Cohort 6, Day 29
# [9] = Compound I, 150 mg BID of Form B, Cohort 7
# [10] = Compound I, 150 mg BID of Form B, Cohort 7, Day 1
# [11] = Compound I, 150 mg BID of Form B, Cohort 7, Day 29
# [12] = Compound I, 200 mg BID of Form B, Cohort 7, Day 1
# [13] = Compound I, 200 mg BID of Form B, Cohort 8
# [14] = Compound I, 200 mg BID of Form B, Cohort 8, Day 29
# [15] = Compound I, 200 mg QD of Form B, Cohort 1
# [16] = Compound I, 200 mg QD of Form B, Cohort 1, Day 29
# [17] = Compound I, 300 mg QD of Form B, Cohort 2
# [18] = Compound I, 300 mg QD of Form B, Cohort 2, Day 29
# [19] = Compound I, 400 mg QD of Form B, Cohort 3
# [20] = Compound I, 400 mg QD of Form B, Cohort 3, Day 29
# [21] = Compound I, 500 mg QD of Form B, Cohort 4
# [22] = Compound I, 500 mg QD of Form B, Cohort 4, Day 29
# [23] = Compound I, 650 mg QD of Form B, Cohort 5
# [24] = Compound I, 650 mg QD of Form B, Cohort 5, Day 29
smiles,measurement,setting,value
"CC(C)N1CCN(c2ccc(Nc3ncc4cc5n(c4n3)C3(CCCCC3)CNC5=O)nc2)CC1 [Compound I, 2′-((5-(4-isopropylpiperazin-1-yl)pyridin-2-yl)amino)-7′,8′-dihydro-6′H-spiro[cyclohexane-1,9′-pyrazino[1′,2′:1,5]pyrrolo[2,3-d]pyrimidin]-6′-one]",AUClast (Max),[1],355 ng·h/mL
same,AUClast (Min),[1],98.9 ng·h/mL
same,Cmax (Max),[1],40.0 ng/mL
same,Cmax (Min),[1],8.26 ng/mL
same,AUClast (Max),[2],580 ng·h/mL
same,AUClast (Min),[2],106 ng·h/mL
same,AUClast (Max),[3],248 ng·h/mL
same,AUClast (Min),[3],177 ng·h/mL
same,Cmax (Max),[3],24.4 ng/mL
same,Cmax (Min),[3],14.4 ng/mL
same,AUClast (Max),[4],684 ng·h/mL
same,AUClast (Min),[4],403 ng·h/mL
same,Cmax (Max),[4],68.7 ng/mL
same,Cmax (Min),[4],27.8 ng/mL
same,AUClast (Max),[5],1040 ng·h/mL
same,AUClast (Min),[5],482 ng·h/mL
same,Cmax (Max),[5],80.7 ng/mL
same,Cmax (Min),[5],38.2 ng/mL
same,Tmax (Max),[5],10.0 h
same,AUClast (Max),[6],92.6 ng·h/mL
same,AUClast (Min),[6],42.8 ng·h/mL
same,Cmax (Max),[6],14.7 ng/mL
same,Cmax (Min),[6],7.25 ng/mL
same,Racc (Max),[7],2.96 (h * ng/mL)/(h * ng/mL)
same,Racc (Mean),[7],1.90 (h * ng/mL)/(h * ng/mL)
same,Racc (Median),[7],2.06 (h * ng/mL)/(h * ng/mL)
same,Racc (Min),[7],0.931 (h * ng/mL)/(h * ng/mL)
same,AUClast (Max),[8],183 ng·h/mL
same,AUClast (Min),[8],41.1 ng·h/mL
same,Cmax (Max),[8],20.5 ng/mL
same,Cmax (Min),[8],5.14 ng/mL
same,Tmax (Max),[8],12.0 h
same,Tmax (Min),[8],60 min
same,Racc (Max),[9],7.71 (h * ng/mL)/(h * ng/mL)
same,Racc (Mean),[9],3.88 (h * ng/mL)/(h * ng/mL)
same,Racc (Median),[9],2.28 (h * ng/mL)/(h * ng/mL)
same,Racc (Min),[9],1.66 (h * ng/mL)/(h * ng/mL)
same,AUClast (Max),[10],146 ng·h/mL
same,AUClast (Min),[10],103 ng·h/mL
same,Cmax (Max),[10],28.3 ng/mL
same,Cmax (Min),[10],12.2 ng/mL
same,AUClast (Max),[11],795 ng·h/mL
same,AUClast (Min),[11],235 ng·h/mL
same,Cmax (Max),[11],83.2 ng/mL
same,AUClast (Max),[12],185 ng·h/mL
same,AUClast (Min),[12],37.9 ng·h/mL
same,Cmax (Max),[12],29.0 ng/mL
same,Cmax (Min),[12],5.28 ng/mL
same,Racc (Max),[13],2.15 (h * ng/mL)/(h * ng/mL)
same,Racc (Mean),[13],2.06 (h * ng/mL)/(h * ng/mL)
same,Racc (Median),[13],2.11 (h * ng/mL)/(h * ng/mL)
same,Racc (Min),[13],1.91 (h * ng/mL)/(h * ng/mL)
same,AUClast (Max),[14],306 ng·h/mL
same,AUClast (Min),[14],79.8 ng·h/mL
same,Cmax (Max),[14],40.8 ng/mL
same,Cmax (Min),[14],7.69 ng/mL
same,Tmax (Max),[14],12.0 h
same,Racc (Max),[15],1.72 (h * ng/mL)/(h * ng/mL)
same,Racc (Mean),[15],1.17 (h * ng/mL)/(h * ng/mL)
same,Racc (Median),[15],1.15 (h * ng/mL)/(h * ng/mL)
same,Racc (Min),[15],0.740 (h * ng/mL)/(h * ng/mL)
same,AUClast (Max),[16],407 ng·h/mL
same,AUClast (Min),[16],73.2 ng·h/mL
same,Cmax (Max),[16],32.0 ng/mL
same,Cmax (Min),[16],5.90 ng/mL
same,Racc (Max),[17],3.62 (h * ng/mL)/(h * ng/mL)
same,Racc (Mean),[17],2.03 (h * ng/mL)/(h * ng/mL)
same,Racc (Median),[17],1.42 (h * ng/mL)/(h * ng/mL)
same,Racc (Min),[17],1.04 (h * ng/mL)/(h * ng/mL)
same,AUClast (Max),[18],789 ng·h/mL
same,AUClast (Min),[18],384 ng·h/mL
same,Cmax (Max),[18],73.0 ng/mL
same,Cmax (Min),[18],27.5 ng/mL
same,Tmax (Max),[18],10.0 h
same,Racc (Max),[19],1.90 (h * ng/mL)/(h * ng/mL)
same,Racc (Mean),[19],1.35 (h * ng/mL)/(h * ng/mL)
same,Racc (Median),[19],1.50 (h * ng/mL)/(h * ng/mL)
same,Racc (Min),[19],0.653 (h * ng/mL)/(h * ng/mL)
same,AUClast (Max),[20],371 ng·h/mL
same,AUClast (Min),[20],115 ng·h/mL
same,Cmax (Max),[20],26.7 ng/mL
same,Cmax (Min),[20],6.94 ng/mL
same,Racc (Max),[21],1.47 (h * ng/mL)/(h * ng/mL)
same,Racc (Mean),[21],1.12 (h * ng/mL)/(h * ng/mL)
same,Racc (Median),[21],0.965 (h * ng/mL)/(h * ng/mL)
same,Racc (Min),[21],0.932 (h * ng/mL)/(h * ng/mL)
same,AUClast (Max),[22],660 ng·h/mL
same,AUClast (Min),[22],570 ng·h/mL
same,Cmax (Max),[22],48.2 ng/mL
same,Cmax (Min),[22],36.4 ng/mL
same,Racc (Max),[23],1.47 (h * ng/mL)/(h * ng/mL)
same,Racc (Mean),[23],1.12 (h * ng/mL)/(h * ng/mL)
same,Racc (Median),[23],0.965 (h * ng/mL)/(h * ng/mL)
same,Racc (Min),[23],0.932 (h * ng/mL)/(h * ng/mL)
same,AUClast (Max),[24],660 ng·h/mL
same,AUClast (Min),[24],570 ng·h/mL
same,Cmax (Max),[24],48.2 ng/mL
same,Cmax (Min),[24],36.4 ng/mL
